Two compounds from patent US10308683B2, “Bicyclic lipolantipeptide, preparation and use as antimicrobial agent” (priority 2015, dated 2019) can be followed below.

Assay [1] deals with S. pneumoniae - ATCC 33400. Particulars: Table 2. Here is the method:
(§1) Methods for Dilution Antibacterial Susceptibility Tests for Bacteria That Grow Aerobically; Approved Standard—Tenth Edition (2015). Clinical and Laboratory Standards Institute Document M07-A10. • 2. Methods for Antimicrobial Susceptibility Testing of Anaerobic Bacteria; Approved Standard—Eighth Edition (2012). Clinical and Laboratory Standards Institute Document M11-A8. • 3. Antimycobacterial activity was determined as described in Journal of Clinical Microbiology (2009, 47:1773-1780) by Springer et al. Quantitative drug susceptibility testing of Mycobacterium tuberculosis by use of MGIT 960 and EpiCenter Instrumentation.

Assay [2] deals with S. aureus - ATCC 13709 (Fully susceptible). Kind of assay: MIC, CLSI dilution susceptibility test (aerobic). The format is cell-based. Particulars: for Minimal Inhibitory Concentration (MIC): Table 2, S. aureus - ATCC 13709 (Fully susceptible). The source says: Clinical and Laboratory Standards Institute Document M07-A10. • 2. […] Clinical and Laboratory Standards Institute Document M11-A8. • 3.

Assay [3] relates to S. aureus - ATCC 1683 (Methicillin resistant). Particulars: for Minimal Inhibitory Concentration (MIC): Table 2, S. aureus - ATCC 1683 (Methicillin resistant).
Assay [4] deals with S. aureus - USA300. Particulars: Table 2.
In assay [5] the test system is S. pneumoniae 6883 (Penicillin resistant). The settings on record: Table 3, Gram-positive aerobe.
For assay [6], the system named is E. faecium 31152980 (Van A resistant). Particulars: Table 3, Gram-positive aerobe.
For assay [7], the system named is P. acnes 1201. Particulars: Table 3, Gram-positive anaerobe. Here is the method: as §1
Assay [8] relates to C. difficile ATCC 700057. The settings on record: Table 3, Gram-positive anaerobe. Here is the method: as §1
Assay [9] concerns S. epidermidis 37361192 (Methicillin sensitive). Particulars: Table 3, Gram-positive aerobe. Here is the method: as §1
Assay [10] concerns S. pneumoniae R119 (R6 like) (Penicillin sensitive). Particulars: Table 3, Gram-positive aerobe. Here is the method: as §1
In assay [11] the test system is S. oralis 39151368. The settings on record: Table 3, Gram-positive aerobe. The protocol:
as §1

Assay [12] has as its system S. mitis 39050149. The settings on record: Table 3, Gram-positive aerobe. The protocol:
as §1

Assay [13] relates to S. pyogenes 37352281. Particulars: Table 3, Gram-positive aerobe. The protocol:
as §1

Assay [14] deals with E. faecium ATCC1858 (Vancomycin (Van) sensitive). The settings on record: Table 3, Gram-positive aerobe. The protocol:
as §1

In assay [15] the test system is S. agalactiae 31432663. Particulars: Table 3, Gram-positive aerobe. Here is the method: as §1
The subject of assay [16] is S. epidermidis 31435861 (Methicillin resistant). Particulars: Table 3, Gram-positive aerobe.
The subject of assay [17] is E. faecium 31430797 (Van B resistant). The settings on record: Table 3, Gram-positive aerobe.
Assay [18] has as its system M. tuberculosis H37Rv. Particulars: Table 3, Mycobacteria.

Consider `C/N=C(\NC)NCCCCCCCCCCCCCCC(=O)NC(C)C(=O)NC1CC2(CS/C=C\NC(=O)C(CO)NC(=O)C(CCC(N)=O)NC2=O)NC(=O)CNC(=O)C(CC(C)C)NC1=O` (stereo not drawn) [Compound A], for which the “Minimal Inhibitory Concentration (MIC)” value is no more than 0.15 µg/mL in assay [1], no more than 0.04 µg/mL in assay [2], no more than 0.3 µg/mL in assay [3] and no more than 0.08 µg/mL in [4].

As for `C/N=C(\NC)NCCCCCCCCCCCCCCCCC(=O)NC(C)C(=O)NC1CC2(CS/C=C\NC(=O)C(CO)NC(=O)C(CCC(N)=O)NC2=O)NC(=O)CNC(=O)C(CC(C)C)NC1=O` (stereo not drawn) [Compound C], the minimum inhibitory concentration (MIC) is no more than 0.125 µg/mL in [5]; no more than 0.25 µg/mL in assay [6]; no more than 0.06 µg/mL in assay [7]; no more than 0.25 µg/mL in assay [8]; no more than 0.25 µg/mL in assay [9]; no more than 0.125 µg/mL in assay [10]. Also, the MIC in assay [11] is no more than 0.25 µg/mL; in [12], no more than 0.25 µg/mL; in [13], no more than 0.5 µg/mL; in assay [14] it was no more than 0.5 µg/mL; in assay [15] it was no more than 0.25 µg/mL; in assay [16] it was no more than 0.25 µg/mL. Besides, the MIC is no more than 0.04 µg/mL in [2] (Table 3, Gram-positive aerobe, S. aureus ATCC13709, Methicillin sensitive); no more than 0.3 µg/mL in assay [3] (Table 3, Gram-positive aerobe, S. aureus ATCC1683, Methicillin resistant); no more than 0.25 µg/mL in [17]; no more than 1 µg/mL in assay [18]. Besides, the “Minimal Inhibitory Concentration (MIC)” value in assay [1] was no more than 0.08 µg/mL; in assay [2], no more than 0.04 µg/mL; in [3] it was no more than 0.3 µg/mL; in [4], no more than 0.08 µg/mL.

What is called MIC is the lowest concentration found to suppress growth.
